Paper PMC4619459, “Metabolism of β-valine via a CoA-dependent ammonia lyase pathway” (Applied Microbiology and Biotechnology, 2015)

How the values were obtained:
Format in all cases: biochemical
[1] = target: T1, BvaB1-His (Pseudomonas sp. SBV1, UniProt A0A0C4UTI5); experiment: UPLC-MS (m/z […]) and HPLC; settings: substrate made in situ by BvaA-His, not purified; 50 mM HEPES, 150 mM NaCl, 5 mM MgCl2, pH 8
T1 sequence (A0A0C4UTI5 1-253): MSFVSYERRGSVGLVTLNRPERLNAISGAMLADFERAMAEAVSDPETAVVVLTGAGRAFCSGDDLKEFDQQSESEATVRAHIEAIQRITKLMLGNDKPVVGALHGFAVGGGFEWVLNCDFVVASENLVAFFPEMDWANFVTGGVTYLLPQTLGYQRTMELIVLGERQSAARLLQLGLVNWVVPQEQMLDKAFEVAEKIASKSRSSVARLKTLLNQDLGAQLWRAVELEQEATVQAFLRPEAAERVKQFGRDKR

[2] = target: T2, BvaB2-His (Pseudomonas sp. SBV1, UniProt A0A0C4USU5); experiment: UPLC-MS (m/z […]) and HPLC; settings: substrate made in situ by BvaA-His, not purified; 50 mM HEPES, 150 mM NaCl, 5 mM MgCl2, pH 8
T2 sequence (A0A0C4USU5 1-266): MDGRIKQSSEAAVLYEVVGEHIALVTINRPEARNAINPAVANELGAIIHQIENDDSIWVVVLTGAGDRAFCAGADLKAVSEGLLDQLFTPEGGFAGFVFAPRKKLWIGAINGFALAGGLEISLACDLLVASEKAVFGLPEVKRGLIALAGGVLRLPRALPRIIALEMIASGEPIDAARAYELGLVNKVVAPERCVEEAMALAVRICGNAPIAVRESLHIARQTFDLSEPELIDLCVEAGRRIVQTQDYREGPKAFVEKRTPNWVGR

[3] = target: T3, BvaA-His (Pseudomonas sp. SBV1, UniProt A0A0C4UT64); experiment: HPLC of AMP formation; settings: 2.5 mM β-valine, 2.5 mM CoA, 5 mM MgCl2, 50 mM HEPES, 150 mM NaCl, pH 8, 30 °C
T3 sequence (A0A0C4UT64 entry or part of it): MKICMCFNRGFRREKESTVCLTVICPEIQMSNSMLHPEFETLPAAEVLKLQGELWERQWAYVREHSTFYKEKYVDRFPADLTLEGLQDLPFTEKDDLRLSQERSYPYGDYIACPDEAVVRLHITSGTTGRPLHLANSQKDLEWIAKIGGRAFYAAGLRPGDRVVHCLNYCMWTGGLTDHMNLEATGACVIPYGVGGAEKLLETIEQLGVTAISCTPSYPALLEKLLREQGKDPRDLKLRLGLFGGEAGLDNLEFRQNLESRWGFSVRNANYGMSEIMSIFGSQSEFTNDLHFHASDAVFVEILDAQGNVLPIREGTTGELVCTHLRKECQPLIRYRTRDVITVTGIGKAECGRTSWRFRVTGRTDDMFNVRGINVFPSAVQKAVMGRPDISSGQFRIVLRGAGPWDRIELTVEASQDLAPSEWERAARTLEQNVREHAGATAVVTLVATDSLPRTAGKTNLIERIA

[4] = target: T3, BvaA-His; experiment: UPLC-MS of CoA adduct; HPLC of AMP formation; settings: 5 mM ATP, 2.5 mM CoA, 5 mM MgCl2, 50 mM HEPES, 150 mM NaCl, pH 8, 30 °C
[5] = target: T2, BvaB2-His; experiment: HPLC of substrate depletion; UPLC-MS; settings: substrate made in situ by BvaA-His, not purified; 50 mM HEPES, 150 mM NaCl, 5 mM MgCl2, pH 8
[6] = target: T1, BvaB1-His; experiment: HPLC of substrate depletion; UPLC-MS; settings: substrate made in situ by BvaA-His, not purified; 50 mM HEPES, 150 mM NaCl, 5 mM MgCl2, pH 8

CC(C)=CC(=O)SCCNC(=O)CCNC(=O)[C@H](O)C(C)(C)COP(=O)(O)OP(=O)(O)OC[C@H]1O[C@@H](n2cnc3c(N)ncnc32)[C@H](O)[C@@H]1OP(=O)(O)O [3-methyl-crotonyl-CoA]
UPLC-MS (m/z 849) and HPLC [1]: This parent ion was observed in a mixture containing either BvaB1-His or BvaB2-His
UPLC-MS (m/z 849) and HPLC [2]: This parent ion was observed in a mixture containing either BvaB1-His or BvaB2-His

Nc1ncnc2c1ncn2[C@@H]1O[C@H](COP(=O)(O)OP(=O)(O)OP(=O)(O)O)[C@@H](O)[C@H]1O [ATP]
HPLC of AMP formation [3]: able to convert β-valine to β-valinyl-CoA in an ATP- and CoA-dependent manner

CC(C)(N)CC(=O)O [β-valine]
UPLC-MS of CoA adduct; HPLC of AMP formation [4]: both the β-valinyl-CoA and the AMP levels increased in time

CC(C)(N)CC(=O)SCCNC(=O)CCNC(=O)[C@H](O)C(C)(C)COP(=O)(O)OP(=O)(O)OC[C@H]1O[C@@H](n2cnc3c(N)ncnc32)[C@H](O)[C@@H]1OP(=O)(O)O [β-valinyl-CoA]
HPLC of substrate depletion; UPLC-MS [5]: both expected β-valinyl-CoA ammonia lyases are able to convert β-valinyl-CoA to 3-methyl-crotonyl-CoA
HPLC of substrate depletion; UPLC-MS [6]: both expected β-valinyl-CoA ammonia lyases are able to convert β-valinyl-CoA to 3-methyl-crotonyl-CoA
